Experimental data taken from patent publication US12285475B2, “Bacterium capable of inducing TH1 cells” (priority 2016, dated 2025).
Read-outs that look alike come from different tables or passages of the source.

Key:
Kp-2H7 = Kp-2H7 antibiotic susceptibility (MIC / growth in presence of antibiotics); type: cell-based, Klebsiella pneumoniae; details: for resistance of Kp-2H7 to antibiotic: FIG. 11 and Table 12, culture 37° C. 24 hours, absorbance 630 nm
Experimental: The bacterium growths were determined based on the absorbance measurement at a wavelength of 630 nm.

Ka-11E12 = Ka-11E12 antibiotic susceptibility (MIC / growth in presence of antibiotics); type: cell-based, Klebsiella aeromobilis; details: against Ka-11E12, Table 14
Experimental: FIG. 36 is a graph for analyzing the Ka-11E12 growths in the presence of antibiotics. Ka-11E12 was cultured in a 96-well plate in the presence of different concentrations of the antibiotics at 37° C. for 24 hours. The bacterium growths were determined based on the absorbance measurement at a wavelength of 630 nm. Each data represents the mean±standard deviation based on the results of at least three independent experiments.

[1] = Klebsiella pneumoniae, 24 h, read-out: MIC
[2] = Klebsiella, 24 h, read-out: MIC

NCC[C@H](O)C(=O)N[C@@H]1C[C@H](N)[C@@H](O[C@H]2O[C@H](CN)[C@@H](O)[C@H](O)[C@H]2O)[C@H](O)[C@H]1O[C@H]1O[C@H](CO)[C@@H](O)[C@H](N)[C@H]1O [Amikacin]
MIC (Kp-2H7; [1]): ≤ 8 µg/mL
MIC (Ka-11E12; [2]): ≤ 8 µg/mL

CC1(C)S[C@@H]2[C@H](NC(=O)[C@H](N)c3ccccc3)C(=O)N2[C@H]1C(=O)O [Ampicillin]
MIC (Kp-2H7; [1]): > 16 µg/mL
MIC (Ka-11E12; [2]): > 16 µg/mL

C[C@H]1[C@H](NC(=O)/C(=N\OC(C)(C)C(=O)O)c2csc(N)n2)C(=O)N1S(=O)(=O)O [Aztreonam]
MIC (Kp-2H7; [1]): ≤ 1 µg/mL
MIC (Ka-11E12; [2]): ≤ 1 µg/mL

N[C@@H](C(=O)N[C@@H]1C(=O)N2C(C(=O)O)=C(Cl)CS[C@H]12)c1ccccc1 [Cefaclor]
MIC (Kp-2H7; [1]): ≤ 4 µg/mL
MIC (Ka-11E12; [2]): 8 µg/mL

Cc1nnc(SCC2=C(C(=O)O)N3C(=O)[C@@H](NC(=O)Cn4cnnn4)[C@H]3SC2)s1 [Cefazolin]
MIC (Kp-2H7; [1]): 1 µg/mL
MIC (Ka-11E12; [2]): > 4 µg/mL

CO[C@@]1(NC(=O)CSCC#N)C(=O)N2C(C(=O)O)=C(CSc3nnnn3C)CS[C@@H]21 [Cefmetazole]
MIC (Kp-2H7; [1]): ≤ 8 µg/mL
MIC (Ka-11E12; [2]): 16 µg/mL

CO/N=C(\C(=O)N[C@@H]1C(=O)N2C(C(=O)O)=C(COC(C)=O)CS[C@H]12)c1csc(N)n1 [Cefotaxime]
MIC (Kp-2H7; [1]): ≤ 0.5 µg/mL
MIC (Ka-11E12; [2]): ≤ 0.5 µg/mL

CN(C)CCn1nnnc1SCC1=C(C(=O)O)N2C(=O)[C@@H](NC(=O)Cc3csc(N)n3)[C@H]2SC1 [Cefotiam]
MIC (Kp-2H7; [1]): ≤ 0.5 µg/mL
MIC (Ka-11E12; [2]): ≤ 0.5 µg/mL

CO/N=C(\C(=O)N[C@@H]1C(=O)N2C(C(=O)[O-])=C(C[n+]3cccc4c3CCC4)CS[C@H]12)c1csc(N)n1 [Cefpirome]
MIC (Kp-2H7; [1]): ≤ 4 µg/mL
MIC (Ka-11E12; [2]): ≤ 4 µg/mL

COCC1=C(C(=O)OC(C)OC(=O)OC(C)C)N2C(=O)[C@@H](NC(=O)/C(=N\OC)c3csc(N)n3)[C@H]2SC1 (some centres unmarked) [Cefpodoxime-Proxetil]
MIC (Kp-2H7; [1]): ≤ 1 µg/mL
MIC (Ka-11E12; [2]): ≤ 1 µg/mL

CC(C)(O/N=C(\C(=O)N[C@@H]1C(=O)N2C(C(=O)[O-])=C(C[n+]3ccccc3)CS[C@H]12)c1csc(N)n1)C(=O)O [Ceftazidime]
MIC (Kp-2H7; [1]): ≤ 1 µg/mL
MIC (Ka-11E12; [2]): ≤ 1 µg/mL

CO[C@@]1(NC(=O)CSC(F)F)C(=O)N2C(C(=O)O)=C(CSc3nnnn3CCO)CO[C@@H]21 [Flomoxef]
MIC (Kp-2H7; [1]): ≤ 8 µg/mL
MIC (Ka-11E12; [2]): ≤ 8 µg/mL

C[C@@H]1O[C@@H]1P(=O)(O)O [Fosfomycin]
MIC (Kp-2H7; [1]): 16 µg/mL
MIC (Ka-11E12; [2]): 16 µg/mL

C[C@H]1COc2c(N3CCN(C)CC3)c(F)cc3c(=O)c(C(=O)O)cn1c23 [Levofloxacin]
MIC (Kp-2H7; [1]): ≤ 1 µg/mL
MIC (Ka-11E12; [2]): ≤ 1 µg/mL

C[C@@H](O)[C@H]1C(=O)N2C(C(=O)O)=C(S[C@@H]3CN[C@H](C(=O)N(C)C)C3)[C@H](C)[C@H]12 [Meropenem]
MIC (Kp-2H7; [1]): ≤ 0.25 µg/mL
MIC (Ka-11E12; [2]): ≤ 0.25 µg/mL

CN(C)c1ccc(O)c2c1C[C@H]1C[C@H]3[C@H](N(C)C)C(O)=C(C(N)=O)C(=O)[C@@]3(O)C(O)=C1C2=O [Minocycline]
MIC (Kp-2H7; [1]): ≤ 2 µg/mL
MIC (Ka-11E12; [2]): ≤ 2 µg/mL

CCN1CCN(C(=O)N[C@@H](C(=O)N[C@@H]2C(=O)N3[C@@H]2SC(C)(C)[C@@H]3C(=O)O)c2ccccc2)C(=O)C1=O [Piperacillin]
MIC (Kp-2H7; [1]): ≤ 8 µg/mL
MIC (Ka-11E12; [2]): ≤ 8 µg/mL

Cc1ncc([N+](=O)[O-])n1CCO [metronidazole]
resistance of Kp-2H7 to antibiotic (Kp-2H7): resistances

CN[C@@H]1[C@H](O)[C@H](NC)[C@H]2O[C@@]3(O)C(=O)C[C@@H](C)O[C@H]3O[C@@H]2[C@H]1O [spectinomycin]
resistance of Kp-2H7 to antibiotic (Kp-2H7): resistances

CC[C@H]1OC(=O)C[C@@H](O)[C@H](C)[C@@H](O[C@@H]2O[C@H](C)[C@@H](O[C@H]3C[C@@](C)(O)[C@@H](O)[C@H](C)O3)[C@H](N(C)C)[C@H]2O)[C@@H](CC=O)C[C@@H](C)C(=O)/C=C/C(C)=C/[C@@H]1CO[C@@H]1O[C@H](C)[C@@H](O)[C@@H](OC)[C@H]1OC [tylosin]
resistance of Kp-2H7 to antibiotic (Kp-2H7): resistances

Amoxicillin/Clavulanate
MIC (Kp-2H7; against Kp-2H7, Table 12): ≤4 µg/mL
MIC (Ka-11E12): >16 µg/mL

Gentamicin
MIC (Kp-2H7; against Kp-2H7, Table 12): ≤2 µg/mL
MIC (Ka-11E12): ≤2 µg/mL

Imipenem/Cilastatin
MIC (Kp-2H7): ≤0.25 µg/mL
MIC (Ka-11E12): ≤0.25 µg/mL

Sulbactam/Cefoperazone
MIC (Kp-2H7; against Kp-2H7, Table 12): ≤4 µg/mL
MIC (Ka-11E12): ≤4 µg/mL

Sulfamethoxazole-Trimethoprim
MIC (Kp-2H7; against Kp-2H7, Table 12): ≤20 µg/mL
MIC (Ka-11E12): ≤ 20 µg/mL
